Columns and labels:
[1] = system: Human hepatocytes; test: Metabolism of parent in human hepatocytes; type: in vitro ADME; conditions: 20 μM parent, 2 million cells per ml, 4 hours, 37° C.; mobile phase pH 5.0
Protocol: Human hepatocytes were generated from a mix of 3 livers. Rat and monkey hepatocytes were generated using Sprague Dawley rats (12 livers), Cynomolgus monkey (1 liver) and Beagle dogs (2 livers). Cryopreserved hepatocytes were suspended in William's E media with 10% FBS to a viable count of 2 million cells per ml and gassed with 95/5 O2/CO2 initially and every hour of incubations. After the addition of 20 μM (3-{[4-tert-butyl-benzyl)-(pyridine-3-sulfonyl)-amino]-methyl}-phenoxy)-acetic acid to a 25 ml Erlenmeyer flask, 2.5 ml of hepatocytes suspension was added and incubated for 4 hours at 37° C. in a shaking water bath.
Metabolite quantification was performed by measuring the areas of individually separated HPLC peaks using the β-RAM (IN/US, Win-flow). The β-RAM provided integrated peak representation printouts in CPM as well as the percentage of the radiolabeled material. The β-RAM was operated using a solid scintillation cell. […]
Identification of the metabolites was performed using a Finnigan TSQ 7000 triple quadrupole mass spectrometer equipped with an API-2 electrospray interface. […] The β-RAM response was recorded as a real time analog signal by the MS data collection system. The collected data from the radioactivity and MS detectors were separated by the dwell volume of flow from the MS to the radioactivity detector (corresponding to a dwell time of about 0.2 min.). […]

[2] = Radiolabelled mass balance and metabolic profiles of 14C-parent in Sprague Dawley rats; type: in vivo; conditions: single 15 mg/kg I.V. dose of 14C-parent
Protocol: To determine the radiolabelled mass balance and metabolic profiles of (3-{[4-tert-butyl-benzyl)-(pyridine-3-sulfonyl)-amino]-methyl}-phenoxy)-acetic acid in urine, feces, bile and plasma of Sprague-Dawley rats after I.V. administration of a single 15 mg/kg dose of ^14C-(3-{[4-tert-butyl-benzyl)-(pyridine-3-sulfonyl)-amino]-methyl}-phenoxy)-acetic acid.
A group of three male and three female jugular-vein cannulated Sprague-Dawley rats (230-240 g) was housed individually in stainless steel metabolic cages designed to collect urine and feces and administered intravenously a single, 15 mg/kg, dose of ^14C-(3-{[4-tert-butyl-benzyl)-(pyridine-3-sulfonyl)-amino]-methyl}-phenoxy)-acetic acid. […]
The radioactivity in urine, bile and plasma was determined by liquid scintillation counting. Aliquots of urine (0.1 g), bile (0.025 g) or plasma (0.025 g) were mixed with 5 ml of Ecolite (+) scintillation cocktail and counted in a Wallac #1409 liquid scintillation counter (Gaithersburg, Md.). Fecal samples at each time point were homogenized with water, and the total weights of the fecal homogenate were recorded. […]
The radioactivity in the dose was established as 100% of the total radioactivity. The radioactivity at each sampling time for urine and feces was defined as the percentage of dose excreted in the respective matrices. […]

- Percent of Radioactivity, Human hepatocytes [1]: 41.2%
- Percentage of metabolite formed in vivo, females (basis of % not stated) ([2]; female rats): 6.5%
- Percentage of metabolite formed in vivo, males (basis of % not stated) ([2]; male rats): 19.7%
Compound: CC(C)(CO)c1ccc(CN(Cc2cccc(OCC(=O)O)c2)S(=O)(=O)c2cccnc2)cc1 [Metabolite M4, (3-{[[4-(2-hydroxy-1,1-dimethyl-ethyl)-benzyl]-(pyridine-3-sulfonyl)-amino]-methyl}-phenoxy)-acetic acid]
